Test [1] has as its target T1, Pancreatic triacylglycerol lipase (Sus scrofa, UniProt P00591).
T1 sequence (P00591 whole entry): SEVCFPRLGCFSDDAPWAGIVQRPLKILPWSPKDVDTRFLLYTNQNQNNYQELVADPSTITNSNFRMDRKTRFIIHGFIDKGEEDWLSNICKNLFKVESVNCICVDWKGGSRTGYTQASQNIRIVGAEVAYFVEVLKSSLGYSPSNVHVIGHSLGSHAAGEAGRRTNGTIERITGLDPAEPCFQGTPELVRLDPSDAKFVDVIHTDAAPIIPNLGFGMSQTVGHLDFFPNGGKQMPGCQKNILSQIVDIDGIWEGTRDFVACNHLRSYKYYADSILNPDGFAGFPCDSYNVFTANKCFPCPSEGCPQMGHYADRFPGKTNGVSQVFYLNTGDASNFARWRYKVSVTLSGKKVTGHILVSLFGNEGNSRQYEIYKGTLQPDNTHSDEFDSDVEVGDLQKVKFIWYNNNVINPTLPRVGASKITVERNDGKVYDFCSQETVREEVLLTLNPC
Description: Inhibition of porcine pancreatic lipase pre-incubated for 15 mins before p-nitrophenylbutyrate substrate addition by microplate reader based method.

For test [2], the target named is T2, Pancreatic triacylglycerol lipase (Sus scrofa) (UniProt P00591).
T2 sequence (whole entry): T1 sequence (P00591 whole entry)
Description: Inhibition of porcine pancreatic lipase at 100 ug/ml pre-incubated for 15 mins before p-nitrophenylbutyrate substrate addition by microplate reader based method.

Test [3] addresses T2, Pancreatic triacylglycerol lipase (Sus scrofa). Nature of the test: Mixed type inhibition of porcine pancreatic lipase pre-incubated for 15 mins before p-nitrophenylbutyrate substrate addition by Lineweaver-Burk plot method.

Activity calls are given as the source filed them. The calls are words filed in the database; no cut-off is given here. Some results are limits rather than exact numbers.

For `CC1(C)C=Cc2c(cc3occc(=O)c3c2O)O1`, the 50% inhibitory concentration (IC50) in test [1] is over 100 µM. The same compound came in with an inhibition in test [2] of 27.5%.

For the compound `O=C1c2c(cc(O)c(O)c2O)O[C@H](c2ccc(O)cc2)[C@H]1O`, the IC50 in test [1] was over 100 µM. Also, in test [2], the inhibition was 40.1%.

As to `CC(C)(O)CCc1c(O)cc(O)c2c1O[C@@H](c1cc3c(cc1O)OC(C)(C)C=C3)CC2=O`, the midpoint of inhibition in test [1], the IC50, lay at 84.6 µM. Moreover, in test [2], the inhibition is 52%.

Turning to `CC(C)=CCc1c(O)c(Cc2ccc(O)cc2)c(O)c2c1O[C@H](c1ccc(O)cc1)CC2=O`, it took 54.8 µM to reach half-maximal inhibition in test [1] (IC50). This compound also displayed an inhibition in test [2] of 70.1%.

The compound `COc1ccc(-c2coc3cc(O)cc(O)c3c2=O)cc1` [BIOCHANIN] yielded an IC50 in test [1] of over 100 µM. The same compound gave an inhibition in test [2] of 6.1%.

In test [1], `CC(C)=CCc1c(O)cc2c(c1O)C(=O)C[C@@H](c1cc3c(cc1O)OC(C)(C)C=C3)O2` [CUDRAFLAVANONE A] yielded a 50% inhibitory concentration (IC50) of 6.5 µM. For the same compound, the inhibition in test [2] came to 81.4%. Also, the inhibition result in test [3] was “Active”.

The compound `O=C1c2c(O)cc(O)cc2O[C@H](c2ccc(O)cc2)[C@H]1O` [DIHYDROKAEMPFEROL] returned a 50% inhibitory concentration (IC50) in test [1] of over 100 µM. The same compound yielded an inhibition in test [2] of 10.8%.

As to `O=c1c(-c2ccc(O)cc2)coc2cc(O)cc(O)c12` [GENISTEIN], the IC50 in test [1] was over 100 µM. For the same compound, the inhibition in test [2] was determined as 3.2%.

`O=c1c(O)c(-c2ccc(O)cc2)oc2cc(O)cc(O)c12` [KAEMPFEROL] registered an IC50 in test [1] of over 100 µM. Further, the inhibition in test [2] was 37%.

Take `O=c1c(O)c(-c2ccc(O)cc2O)oc2cc(O)cc(O)c12` [MORIN]: the IC50 in test [1] is over 100 µM. This compound also came in with an inhibition in test [2] of 26.3%.

The compound `O=C1C[C@@H](c2ccc(O)cc2)Oc2cc(O)cc(O)c21` [NARINGENIN] gave an IC50 in test [1] of over 100 µM. The compound further displayed an inhibition in test [2] of 25.2%.

As for `CC(C)=CCc1c(O)cc(O)c2c1OC(c1ccc(O)cc1)CC2=O` (configuration not stated) [SOPHORAFLAVANONE B], in test [1], it took 76.9 µM to reach half-maximal inhibition (IC50). Besides, in test [2], the inhibition worked out at 55.5%.

`CC(C)=CCc1c(O)cc2occ(-c3ccc(O)cc3)c(=O)c2c1O` [WIGHTEONE] returned an IC50 in test [1] of over 100 µM. In test [2], this compound registered an inhibition of 49.6%.

As usually defined, the IC50 is the concentration that inhibits the measured activity by half. A low value points to inhibition by little substance. One may read the inhibition as the change of the read-out against control, counted positive when it falls.

Source of the values: ChEMBL document CHEMBL3608203, “Benzylated and prenylated flavonoids from the root barks of Cudrania tricuspidata with pancreatic lipase inhibitory activity” (Bioorg Med Chem Lett, 2015).
